In patent US6906205B2, “Spiro and dispiro 1,2,4-trioxolane antimalarials” (Medicines for Malaria Venture MMV, priority 2002, dated 2005):
In brackets after ≈: the same amount, converted by molar mass.

Tests used:
[1] = tested on: ANKA strain of Plasmodium berghei; assay: single dose ED50/ED90/ED99 determinations in infected mice; type: in vivo; details: single dose po in SSV, mice, percent reduction in parasitemia on day three post-infection
Description: In the single dose ED50/ED90/ED99 determinations, Moro SPF or NMRI mice (group of three) infected with the ANKA strain of Plasmodium berghei were treated on day one post-infection. […] The SSV consists of 0.5% w/v CMC, 0.5% v/v benzyl alcohol, 0.4% v/v Tween 80, and 0.9% w/v sodium chloride in water. Antimalarial activity was measured by percent reduction in parasitemia on day three post-infection. The ED50/ED90 values were calculated by nonlinear fitting.

[2] = tested on: ANKA strain of P. berghei; assay: single dose STI in vivo screen in infected mice; set-up: species or system Plasmodium berghei; details: for Activity (%) po / Activity (%) sc / Activity (%) SSVpo: percent reduction in parasitemia day 3 post-infection, mice; for Activity (%) po / Survival (days) po: single 10 mg/kg po in 3% ethanol and 7% Tween 80; for Activity (%) sc / Survival (days) sc: single 10 mg/kg sc in 3% ethanol and 7% Tween 80; for Activity (%) SSVpo: single po dose in standard suspending vehicle (SSV); for Survival (days) po / Survival (days) sc / Survival (days) SSVpo: untreated control 5.6 ± 0.3; for Survival (days) SSVpo: single po dose in SSV
In short: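 Groups of 3-5 Moro SPF or NMRI mice infected with the ANKA strain of P. berghei received a single dose of trioxolane on day one post-infection. The compound was given in 3% ethanol and 7% Tween 80 or in SSV (0.5% w/v CMC, 0.5% v/v benzyl alcohol, 0.4% v/v Tween 80, 0.9% w/v sodium chloride in water). Antimalarial activity was scored as percent reduction in parasitemia on day three and as survival time versus untreated controls. Survival to day 30 counted as cure.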

[3] = tested on: P. falciparum K1 strain (Thailand resistant to chloroquine); assay: semiautomated microdilution assay, [3H]-hypoxanthine incorporation, K1 strain; type: cell-based, Plasmodium falciparum; details: K1 strain, 72 h incubation
In short: (§1)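 IC50 values come from logit regression of semiautomated microdilution data obtained on intraerythrocytic parasites drawn from asynchronous cultures.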

[4] = tested on: P. falciparum NF54 strain (sensitive to standard antimalarials); assay: semiautomated microdilution assay, [3H]-hypoxanthine incorporation, NF54 strain; type: cell-based, Plasmodium falciparum; details: NF54 strain, 72 h incubation
In short: as §1

[5] = tested on: Schistosoma mansoni 21-day-old schistosomules; assay: effect on 21-day-old schistosomules in mice; type: in vivo; details: single 200 mg/kg per os, female mice
Description: All groups were killed 4 weeks after treatment and the liver and intestine were removed and separated. The liver and intestine were compressed and alive male and female worms could be seen and counted. The effect of the compounds was evaluated by mean total and female worm burden.

[6] = tested on: Schistosoma mansoni adult schistosomes (49-day-old); assay: effect on adult schistosomes (49-day-old) in mice; type: in vivo; details: for % reduction of adult worms growth at day 49 after per os application of 400 mg/kg, TWR (%) / adult worms at day 49, per os 400 mg/kg, DEAD WORM (%): single 400 mg/kg per os
Description: Mice were infected with 100 Schistosoma mansoni cercariae […]. Each group was treated per os with OZ compounds at single doses of 200, 400, and 600 mg/kg. […] All groups were killed 4 weeks after treatment and the liver and intestine were removed and separated. The liver and intestine were compressed and alive male and female worms could be seen and counted.

P. berghei ANKA strain [7] = assay: prophylactic activity, single 100 mg/kg po dose before infection; type: in vivo, Plasmodium berghei; details: for Prophylactic Activity (%): reduction of parasitemia day 3 post-infection
Description: (§2) Moro NMRI male mice (Fü Albino specific pathogen free) weighing 18±2 g were infected intravenously (i.v.) with 2×10^7 P. berghei ANKA strain-infected erythrocytes from donor mice on day 0 of the experiment. From donor mice with circa 30% parasitemia, heparinized blood was taken and diluted in physiological saline to 10^8 parasitized erythrocytes per ml. An aliquot (0.2 ml) of this suspension was injected i.v. into experimental and control groups of mice. In untreated control mice, parasitemia rose regularly to 40 to 50% by day 3 post-infection and 70 to 80% by day 4 post-infection. The mice died between days 5 and 7 post-infection. Throughout the experiments, mice were kept in groups of three or five animals in Makrolon type II cages in an air-conditioned animal room at 22 to 23° C. A diet with p-aminobenzoic acid (PABA) of 45 mg (NAFAG FUTTER© food N^o 9009 PAB-45) per kg of body weight, and tap water is available ad libitum.
(§3) OZ compounds were prepared at an appropriate concentration, either as a solution or a suspension containing SSV (0.5% w/v CMC, 0.5% v/v benzyl alcohol, 0.4% v/v Tween 80, and 0.9% w/v sodium chloride in water). They were administered per os (p.o.) in a total volume of 0.01 ml per gram of mouse. The activity of the compound was determined by a variety of methods outlined in subsequent sections. Survival time was also recorded, and survival to day 30 post-infection was considered to be a cure.
Prophylactic activities of the compounds were compared after administering po single dose of 100 mg/kg to different groups of five animals at various times before infection. All groups including an untreated control group, were then infected at the same time. Parasitemia was determined for each animal on day 3 post-infection, and percent of reduction of the level of parasitemia compared to levels for animals given no drug is determined.

P. berghei ANKA strain [8] = assay: treatment: 3x3 mg/kg and 3x1 mg/kg po divided doses in infected mice; type: in vivo, Plasmodium berghei; details: for Activity (%) p.o. SSV: percent reduction of parasitemia day 4
Description: as §2, §3
The second experiment consists of administration of divided 3×3 mg/kg and 3×1 mg/kg po doses administered on days 1, 2, and 3 post-infection. On day 4 post-infection, blood smears of all animals were prepared and stained with Giemsa. Parasitemia was determined microscopically, and the difference between the mean value of the control group (taken as 100%) and those of the experimental groups was calculated and expressed as percent reduction. Compounds were administered orally in the SSV vehicle.

P. berghei ANKA strain [9] = assay: treatment: 3x10 mg/kg p.o. divided dose vs 1x30 mg/kg po single dose in infected mice; type: in vivo, Plasmodium berghei; details: 3 × 10 mg/kg days 1, 2, 3 post-infection; for Activity (%) p.o. SSV: percent reduction of parasitemia day 4
Description: Moro NMRI male mice (Fü Albino specific pathogen free) weighing 18±2 g were infected intravenously (i.v.) with 2×10^7 P. berghei ANKA strain-infected erythrocytes from donor mice on day 0 of the experiment. From donor mice with circa 30% parasitemia, heparinized blood was taken and diluted in physiological saline to 10^8 parasitized erythrocytes per ml. An aliquot (0.2 ml) of this suspension was injected i.v. into experimental and control groups of mice. […] Throughout the experiments, mice were kept in groups of three or five animals in Makrolon type II cages in an air-conditioned animal room at 22 to 23° C.
They were administered per os (p.o.) in a total volume of 0.01 ml per gram of mouse. The activity of the compound was determined by a variety of methods outlined in subsequent sections. Survival time was also recorded, and survival to day 30 post-infection was considered to be a cure.
The first experiment conducted consisted of administration of a divided 3×10 mg/kg p.o. dose administered on days 1, 2, and 3 post-infection vs. a single 1×30 mg/kg po dose administered on day 1 post-infection. On day 4 post-infection, blood smears of all animals were prepared and stained with Giemsa. […] Compounds were administered orally in the SSV vehicle.

[10] = 3 × 1 mg/kg days 1, 2, 3 post-infection
[11] = 3 × 3 mg/kg days 1, 2, 3 post-infection

| SMILES | ED90 [1] [mg/kg] | ED99 [1] [mg/kg] | Activity (%) po [2] [%] | Activity (%) sc [2] [%] | Activity (%) SSVpo [2] [%] | Survival (days) po [2] [days] | Survival (days) sc [2] [days] | Survival (days) SSVpo [2] [days] | IC50 (ng/ml) K1 [3] | IC50 (ng/ml) NF54 [4] | % reduction of schistosomule growth at day 21 after per os application of 200 mg/kg, FWR (%) [5] [%] | % reduction of schistosomule growth at day 21 after per os application of 200 mg/kg, TWR (%) [5] [%] | % reduction of adult worms growth at day 49 after per os application of 400 mg/kg, TWR (%) [6] [%] | adult worms at day 49, per os 400 mg/kg, DEAD WORM (%) [6] [%] | Survival (days) p.o. SSV (P. berghei ANKA strain [8]; [10]) [days] | Activity (%) p.o. SSV (P. berghei ANKA strain [8]; [10]) [%] | Survival (days) p.o. SSV (P. berghei ANKA strain [8]; [11]) [days] | Activity (%) p.o. SSV (P. berghei ANKA strain [8]; [11]) [%] | also measured |
| --- | --- | --- | --- | --- | --- | --- | --- | --- | --- | --- | --- | --- | --- | --- | --- | --- | --- | --- | --- |
| CC(C)(O)C[C@H]1CC[C@]2(CC1)OOC1(O2)C2CC3CC(C2)CC1C3 (stereo partly drawn) [OZ205] | 3.3 | 6.0 | 99.96 | 99.96 | 99.94 | 10.0 | 9.7 | 8.7 | 1.5 ng/mL (≈ 4.46 nM) | 2.0 ng/mL (≈ 5.94 nM) | 83 | 84 | 0 | 12 | – | – | – | – | ED50 [1]: 1.6 mg/kg |
| O=C(O)CC1CCC2(CC1)OOC1(O2)C2CC3CC(C2)CC1C3 (stereo not drawn) [OZ78] | 9.1 | 17 | 94 | 79 | 97 | 8.7 | 6.7 | 7.0 | 24 ng/mL (≈ 74.4 nM) | 42 ng/mL (≈ 130 nM) | 87 | 82 | 0 | 17 | – | – | – | – | % reduction of adult worms growth at day 49 after per os application of 200 mg/kg, TWR (%) ([6]; single 200 mg/kg per os): 24%; adult worms at day 49, per os 200 mg/kg, DEAD WORM (%) ([6]; single 200 mg/kg per os): 29%; % reduction of adult worms growth at day 49 after per os application of 600 mg/kg, TWR (%) ([6]; single 600 mg/kg per os): 0%; adult worms at day 49, per os 600 mg/kg, DEAD WORM (%) ([6]; single 600 mg/kg per os): 14% |
| NCC(=O)NC[C@H]1CC[C@]2(CC1)OO[C@]1(O2)C2CC3CC(C2)CC1C3 [OZ271] | – | – | – | – | – | – | – | – | 0.36 ng/mL (≈ 1.03 nM) | 0.29 ng/mL (≈ 0.827 nM) | 86 | 88 | 0 | 6 | – | – | – | – | duration of prophylactic protection (P. berghei ANKA strain [7]; single 100 mg/kg po before infection): 3 days; Survival (days) 10 mg/kg SSV po ([2]; single 10 mg/kg po in SSV): 8.7 days |
| NC[C@H]1CC[C@]2(CC1)OOC1(O2)C2CC3CC(C2)CC1C3 (stereo partly drawn) [OZ209] | 1.4 | 3.0 | – | – | – | – | – | 10.0 | – | – | – | 85 | – | – | – | – | – | – | activity (percent reduction of parasitemia) (P. berghei ANKA strain [8]; 3×1 mg/kg po on days 1, 2, 3 post-infection, SSV): greater than 99% |
| CC1(C)COC2(CCC3(CC2)OOC2(O3)C3CC4CC(C3)CC2C4)OC1 (stereo not drawn) [OZ11] | 6.2 | 8.2 | 99.99 | 100 | 98 | 11.4 | 18 | 7.4 | – | – | 84 | 85 | 16 | 4 | – | – | – | – | – |
| c1ccc(C[C@H]2CC[C@]3(CC2)OOC2(O3)C3CC4CC(C3)CC2C4)cc1 (stereo partly drawn) [OZ156] | 2.6 | 4.7 | 99.98 | 99.98 | 98.8 | 17.0 | 19.7 | 10.3 | 2.1/2.1 ng/ml | 2.1/2.1 ng/ml | 72 | 75 | 0 | 6 | – | – | – | – | ED50 [1]: 1.3 mg/kg |
| Cc1ccc(S(=O)(=O)O)cc1.NC1CCC(NC(=O)CC2CCC3(CC2)OOC2(O3)C3CC4CC(C3)CC2C4)CC1 (stereo not drawn) [compound 315] | – | – | – | – | – | – | – | – | – | – | – | – | – | – | 12.2 | 81 | 22 | 99.99 | Survival (days) p.o. SSV (P. berghei ANKA strain [9]): >30 days; Activity (%) p.o. SSV (P. berghei ANKA strain [9]): 100% |
| CS(=O)(=O)O.c1cc(OCC2CCC3(CC2)OOC2(O3)C3CC4CC(C3)CC2C4)ccn1 (stereo not drawn) [compound 301] | – | – | – | – | – | – | – | – | – | – | – | – | – | – | 8.8 | 58 | 23 | 100 | Survival (days) p.o. SSV (P. berghei ANKA strain [9]): >30 days; Activity (%) p.o. SSV (P. berghei ANKA strain [9]): 100% |
| CC(C)(N)C(=O)NCC1CCC2(CC1)OOC1(O2)C2CC3CC(C2)CC1C3 (stereo not drawn) [compound 281] | – | – | – | – | – | – | – | – | – | – | – | – | – | – | 13 | 92 | 12.4 | 100 | Prophylactic Activity (%) (P. berghei ANKA strain [7]; single 100 mg/kg po 24 h before infection): 99.23%; Prophylactic Activity (%) (P. berghei ANKA strain [7]; single 100 mg/kg po 48 h before infection): 45%; Prophylactic Activity (%) (P. berghei ANKA strain [7]; single 100 mg/kg po 72 h before infection): 8%; Prophylactic Activity (%) (P. berghei ANKA strain [7]; single 100 mg/kg po at 0 h): 100% |
